In the NIST ThermoML archive (doi:10.1021/je2000217):
± gives the expanded uncertainty stated by the source.

Assay: cn = amount concentration of the nth substance listed, in mol/dm3
Settings: 100 kPa, Liquid; for viscosity: Capillary tube (Ostwald / Ubbelohde) method; for mass density: Vibrating tube method

CCCCCCCCCCCCCCCC[N+](C)(C)C.[Br-] [N,N,N-trimethyl-1-hexadecanaminium bromide] + O
Settings	mass density, 298.15 K [kg/m3]	mass density, 308.15 K [kg/m3]	mass density, 318.15 K [kg/m3]	viscosity, 298.15 K [mPa·s]	viscosity, 308.15 K [mPa·s]	viscosity, 318.15 K [mPa·s]
c1 = 0.001	997.1 ± 0.4	994.2 ± 0.4	990.6 ± 0.4	0.8978 ± 0.019	0.7436 ± 0.016	0.6173 ± 0.013
c1 = 0.003	997.3 ± 0.4	994.3 ± 0.4	990.7 ± 0.4	0.9087 ± 0.019	0.7516 ± 0.016	0.6217 ± 0.013
c1 = 0.005	997.4 ± 0.4	994.4 ± 0.4	990.8 ± 0.4	0.9213 ± 0.019	0.7596 ± 0.016	0.6349 ± 0.013
